Source: patent US20180008612A1 (priority 2016, published 2018)
“And” between values parts separate entries of the source, which are not always exact repeats. Equal entries are not always repeated. Where two headings read alike, the source gives them in different places.

Columns and labels:
[1] = Antioxidant effect on galantamine stability under normal and stress conditions; format: physicochemical
[2] = Skin permeation, Franz diffusion cells; format: in vitro ADME, human; settings: for Enhancement Ratio: human
Procedure: The flux can be measured with a standard procedure using Franz diffusion cells, and the experiments were done on human cadaver skin. With Franz cells, in each Franz diffusion cell a disc (diameter of 25 mm) of human cadaver skin is placed on the receptor compartment. A transdermal delivery system is cut the same size as the skin and placed over the diffusion area in the center of the receptor. The donor compartment is then added and clamped to the assembly. At time 0, receptor medium solution 14 mL is added into the receptor compartment and the cell maintained at 32° C. Samples of the receptor compartment are taken periodically to determine the skin flux and analyzed by HPLC.
Skin permeation of various formulations were tested. The results are provided in FIGS. 1, and 2 and Tables 5 and 6. Higher the amount of the galantamine in the adhesives will increase the penetration, but when over the saturation point, the transdermal system will crystalize, and result a low penetration rate.
When adding an enhancer, it might improve the penetration rate. […] When increase the amount of the enhancer, it might not improve the penetration rate.
A co-solvent helps dissolving the drug in the adhesive but it might also help with the penetration rate.

[3] = galantamine with the antioxidant (label), 25′C
[4] = galantamine with the antioxidant (label), 80′C-4 D
[5] = galantamine with the antioxidant (label), 60′C-14 D
[6] = galantamine with the antioxidant (label), 80′C-1 D

Compound | Total Impurity Amount % [1, 3] | Total Impurity Amount % [1, 4] | Total Impurity Amount % [1, 5] | Total Impurity Amount % [1, 6] | other results
vitamin E | 0.12% | 1.77% |  |  | Total Impurity Amount % [1]: 0.84% and 0.69%
O=S([O-])([O-])=S.[Na+].[Na+] [Sodium Thiosulfate, sodium thiosulfate] |  |  |  |  | Total Impurity Amount % [1]: 0.13% and 1.02% and 0.67% and 2.20%
CCCCCCCCCCCCCC(=O)OC(C)C [IPM, isopropyl myristate] |  |  |  |  | Enhancement Ratio ([2]; 3 % w/w): 2; Enhancement Ratio ([2]; 5 % w/w): 1
CC(O)CO (stereo not shown) [Propylene Glycol, propylene glycol] |  |  |  |  | Enhancement Ratio ([2]; 5 % w/w): 4; Enhancement Ratio ([2]; 10 % w/w): 7
O=S([O-])[O-].[Na+].[Na+] [Sodium Sulfite, sodium sulfite] | 0.14% | 1.69% |  |  | Total Impurity Amount % [1]: 1.04% and 0.74%
CCOCCOCCO [Transcutol P, diethylene glycol monoethyl ether] |  |  |  |  | penetration rate [2]: improves the penetration rate; Enhancement Ratio ([2]; 5 %): 5; Enhancement Ratio ([2]; 5 % w/w): 4
Cc1cc(C(C)(C)C)c(O)c(C(C)(C)C)c1 [Butylated Hydroxytoluene (BHT), butylated hydroxytoluene] | 0.11% | 1.18% | 0.33% | 0.51% | 
O=C1O[C@H]([C@H](O)CO)C(O)=C1O [Erythorbic Acid, erythorbic acid] | 0.50% | 0.87% |  |  | Total Impurity Amount % [1]: 1.35% and 0.74%
CCCCCCCCCCCCCCCC(=O)OC[C@H](O)[C@H]1OC(=O)C(O)=C1O [Ascorbyl Palmitate, ascorbyl palmitate] | 0.12% | 1.13% | 0.58% | 0.28% | 
O=S=O [Sulfur Dioxide, sulfur dioxide] | 0.16% | 1.83% | 1.04% | 0.54% | 
OCC(O)CS (stereo not shown) [Monothioglycerol, monothioglycerol] | 0.16% | 1.49% | 1.09% | 0.51% | 
O=[N+]([O-])C(Br)(CO)CO [Bronopol, bronopol] | 0.18% | 1.82% | 0.81% | 0.69% | 
CCCCCCCC/C=C\CCCCCCCC(=O)O [Oleic Acid, oleic acid] |  |  |  |  | Enhancement Ratio ([2]; 3 % w/w): 1
O=S([O-])S(=O)(=O)[O-].[Na+].[Na+] [Sodium metabisulfite, sodium metabisulfite] | 0.17% | 0.93% | 0.45% | 0.14% | 
CCCCCCCC/C=C\CCCCCCCC(=O)OCC [Ethyl Oleate, ethyl oleate] |  |  |  |  | Enhancement Ratio ([2]; 3 % w/w): 2
